Measured values taken from PMC8570331, “8-Hydroxyquinoline-Amino Acid Hybrids and Their Half-Sandwich Rh and Ru Complexes: Synthesis, Anticancer Activities, Solution Chemistry and Interaction with Biomolecules” (International Journal of Molecular Sciences, 2021).
Like-named read-outs stand apart in the source and are kept apart here.

How the values were obtained:
[1] = system: MRC-5 human lung fibroblast cell line; experiment: MTT cytotoxicity assay in MRC-5; assay type: cell-based; settings: Homo sapiens, MRC5, 72 h incubation
Procedure: (§1) The in vitro cytotoxic activity of the novel water-soluble amino acid derivatives of HQCl and their RhCp* and RuCym complexes was measured by the thiazolyl blue tetrazolium bromide (MTT) assay in two human colon adenocarcinoma cell lines (Colo-205 and Colo-320) and in one non-tumoral human lung fibroblast cell line (MRC-5). The results are given in terms of IC50 values (Table 1). Colo-205 is a drug-sensitive cell line with a normal ABCB1 transporter expression pattern, while Colo-320 is multidrug-resistant and overexpresses the ABCB1 system.
(§2) All cell culture reagents were obtained from Sigma-Aldrich and plasticware from Sarstedt (Nümbrecht, Germany). Human colonic Colo-205 doxorubicin-sensitive and Colo-320/MDR-LRP multidrug-resistant adenocarcinoma and MRC-5 human embryonal lung fibroblast cell lines were purchased from LGC Promochem, Teddington, UK. The colonic adenocarcinoma cells were cultured in Roswell Park Memorial Institute (RPMI) 1640 medium supplemented with 10% heat-inactivated fetal bovine serum, 2 mM L-glutamine, 1 mM sodium pyruvate and […]. The MRC-5 cell line was cultured in Eagle’s Minimal Essential Medium (EMEM, Sigma-Aldrich, St. Louis, MO, USA) supplemented with a non-essential amino acid (NEAA) mixture (Sigma-Aldrich, St. Louis, MO, USA) a selection of vitamins, 10% heat-inactivated foetal bovine serum (FBS), 2 mM L-glutamine (Sigma-Aldrich, St. Louis, MO, USA), 1 mM Na-pyruvate (Sigma-Aldrich, St. Louis, MO, USA), nystatin (Sigma-Aldrich, St. Louis, MO, USA) and a penicillin-streptomycin mixture (Sigma-Aldrich, St. Louis, MO, USA) in con-centrations of 100 U/L and 10 mg/L, respectively. The cells were incubated at 37 °C, in a 5% CO2, 95% air atmosphere. All cell lines were detached with Trypsin-Versene (EDTA) solution for 5 min at 37 °C.
(§3) The tested compounds were dissolved in 10% (v/v) DMSO/H2O using 4 mM concentration. Doxorubicin (Merck, Darmstadt, Germany) was used as a positive control. Then stock solutions were diluted in complete culture medium, and two-fold serial dilutions of compounds were prepared in 100 μL of the medium, horizontally. The semi-adherent colonic adenocarcinoma cells were treated with Trypsin-Versene (EDTA) solution. They were adjusted to a density of 1 × 10^4 cells in 100 μL of RPMI 1640 or EMEM medium and were added to each well, with the exception of the medium control wells. The final volume of the wells containing compounds and cells was 200 μL. The plates containing Colo-205, Colo-320 or MRC-5 cells were incubated at 37 °C for 72 h; at the end of the incubation period, 20 μL of MTT solution (from a stock solution of 5 mg/mL) were added to each well. After incubation at 37 °C for 4 h, 100 μL of SDS solution (10% in 0.01 M HCI) were added to each well, and the plates were further incubated at 37 °C overnight. […] The IC50 values were obtained from at least 3 independent experiments.

[2] = Proton dissociation constants of the ligands (pH-potentiometry, UV-vis, 1H NMR titrations); assay type: physicochemical; settings: for pKa: aqueous solution, I = 0.2 M KNO3, T = 25.0 °C
Procedure: pH-potentiometric measurements were carried out at 25.0 ± 0.1 °C in water in the pH range between 2.0 and 11.5 and at a constant ionic strength of 0.2 M KNO3. The titrations were performed in a carbonate-free KOH solution (0.20 M). The exact concentrations of HNO3 and KOH solutions were determined by pH-potentiometric titrations. An Orion 710A pH-meter equipped with a Metrohm combined electrode (type 6.0234.100) and a Metrohm 665 Dosimat burette were used for the pH-potentiometric measurements. […] The average water ionization constant, pKw, was determined as 13.76 ± 0.01, which is in good agreement with the literature data. The initial volume of the samples was 5.0 mL. The ligand concentration was 1.75 or 2.0 mM. Samples were degassed by bubbling purified argon through them for about 10 min prior to the measurements, and the inert gas was also passed over the solutions during the titrations. The computer program Hyperquad2013 [46] was utilized to establish the stoichiometry of the species and to calculate the equilibrium constants, similarly to that performed in our previous works.
Agilent Cary 8454 diode array spectrophotometer was utilized to obtain UV-vis spectra in the wavelength range 190–1100 nm. The path length (ℓ) was 1 cm in most cases (the actual ℓ is always indicated in the legends of the figures). The concentrations of the ligands and complexes were between 88 and 240 µM. For HSA and ct-DNA containing samples, complex concentrations were 100 µM, and 0.5 and 2 equiv. biomolecule were added for kinetic studies, respectively. Individual samples contained 0–20 µM HSA and 0–1.75 mM (nucleotide) ct-DNA. Spectra were always background corrected. The computer program HypSpec was used to obtain stability constants.
Bruker Avance III HD Ascend 500 Plus instrument (Billerica, MA, USA) was used for NMR studies. ^1H NMR spectroscopic measurements were carried out with a WATERGATE water suppression pulse scheme in the presence of 10% (v/v) D2O in most cases. DSS internal standard was added to samples to obtain reference peaks. Complex concentrations were 0.5 mM or 1.0 mM, and 0.5 equiv. HSA was added. ^1H NMR titrations were carried out in the presence of 0.2 M KNO3. With the FHA model peptide, the measurements were performed at 0.5 or 1 mM metal complex concentrations, and 1:1, 1:2 or 2:1 peptide-to-metal complex ratios were applied. The computer program HypSpec was used to obtain stability constants.

[3] = Distribution coefficients, shake-flask n-octanol/buffered aqueous solution; assay type: physicochemical; settings: pH 7.4, n-octanol/buffer, in 100 mM KCl, read-out: logD7.4
Procedure: It is worth noting that these amino acid hybrids have excellent water solubility due to their zwitterionic form, unlike most 8-hydroxyquinolines.
Distribution coefficients of the ligands as well as of the complexes were determined at pH = 7.4 using the traditional shake-flask method in n-octanol/buffered aqueous solution (20 mM phosphate) at different chloride ion concentrations (4, 24 and 100 mM) using UV-vis spectrophotometry for the analysis. The measurement and data evaluation were performed as described in our former work.

[4] = system: Colo-320 human colon adenocarcinoma cell line (multidrug-resistant); design: method as in PMID 32500882; settings: cited from earlier work
[5] = system: Colo-205 human colon adenocarcinoma cell line (doxorubicin-sensitive); design: method as in PMID 32500882; settings: cited from earlier work
[6] = design: method as in PMID 32500882; settings: cited from earlier work
Colo-205 cells = experiment: Annexin V-FITC / propidium iodide apoptosis induction assay, flow cytometry; assay type: cell-based, human; settings: 3 h induction
Description: 12H-Benzo[α]phenothiazine (M627) and cisplatin were used as positive controls. Annexin-V assay offers the possibility of detecting early phases of apoptosis. Apoptosis is a morphologically and biochemically distinct form of programmed cell death, which is the preferred mode of action for an anticancer compound. PI was used to distinguish between viable, early apoptotic and necrotic or late apoptotic cells. […] In order to better understand the different behavior of the studied compounds, an in-depth analysis of the various solution (physico-)chemical properties of the ligands and complexes were performed.
The assay was carried out using an Annexin V-FITC Apoptosis Detection Kit from Sigma-Aldrich according to the manufacturer’s instructions. The concentration of the Colo-205 cell suspension was adjusted to approximately 0.5 × 10^6 cells per mL in RPMI 1640 medium, and the cell suspension was distributed in 1 mL aliquots into a 24-well plate and then incubated overnight at 37 °C and 5% CO2. The next day, the medium was removed and replaced by 1 mL RPMI 1640 medium containing the compounds except for the control samples. […] After the incubation period, the samples were washed with PBS, and a fresh medium was added to the samples. The cells were incubated overnight at 37 °C and 5% CO2. The next day, 200 μL 0.25% Trypsin (Trypsin-Versen) was added to the samples until cells appeared detached, followed by the addition of 400 μL of medium supplemented with 10% bovine serum. The cells were collected in Eppendorf tubes and centrifuged at 2000× g for 2 min. The harvested cells were re-suspended in a fresh serum-free RPMI 1640 culture medium. After this step, the apoptosis assay was carried out according to the protocol of the kit. The fluorescence was analyzed immediately using a ParTec CyFlow flow cytometer (Partec GmbH, Münster, Germany).

[7] = target: T1, HSA site I (subdomain IIA) (Homo sapiens, UniProt P02768); design: method as in PMID 34374386; settings: cited from earlier work
T1 construct: purchased Sigma-Aldrich A8763

[8] = target: T2, HSA site II (subdomain IIIA) (Homo sapiens, UniProt P02768); design: method as in PMID 34374386; settings: cited from earlier work
T2 construct: purchased Sigma-Aldrich A8763

Ac-Ala–His–Ala-NH2 (AHA) = system: Ac-Ala–His–Ala-NH2 (AHA); design: method as in PMID 34374386; settings: cited from earlier work
Ac-Phe–His–Ala-NH2 (FHA) = system: Ac-Phe–His–Ala-NH2 (FHA); design: method as in PMID 34374386; settings: cited from earlier work
[9] = design: method as in PMID 32500882; settings: cited from earlier work; remark: listed apart in the source
[10] = system: Colo-205 human colon adenocarcinoma cell line (doxorubicin-sensitive); experiment: MTT cytotoxicity assay in Colo-205; assay type: cell-based; settings: Homo sapiens, COLO 205, 72 h incubation
Procedure: as §1, §2, §3

[11] = system: Colo-320 human colon adenocarcinoma cell line (multidrug-resistant); experiment: MTT cytotoxicity assay in Colo-320; assay type: cell-based; settings: Homo sapiens, COLO 320, 72 h incubation
Procedure: as §1, §2, §3

T2 sequence (P02768 25-609): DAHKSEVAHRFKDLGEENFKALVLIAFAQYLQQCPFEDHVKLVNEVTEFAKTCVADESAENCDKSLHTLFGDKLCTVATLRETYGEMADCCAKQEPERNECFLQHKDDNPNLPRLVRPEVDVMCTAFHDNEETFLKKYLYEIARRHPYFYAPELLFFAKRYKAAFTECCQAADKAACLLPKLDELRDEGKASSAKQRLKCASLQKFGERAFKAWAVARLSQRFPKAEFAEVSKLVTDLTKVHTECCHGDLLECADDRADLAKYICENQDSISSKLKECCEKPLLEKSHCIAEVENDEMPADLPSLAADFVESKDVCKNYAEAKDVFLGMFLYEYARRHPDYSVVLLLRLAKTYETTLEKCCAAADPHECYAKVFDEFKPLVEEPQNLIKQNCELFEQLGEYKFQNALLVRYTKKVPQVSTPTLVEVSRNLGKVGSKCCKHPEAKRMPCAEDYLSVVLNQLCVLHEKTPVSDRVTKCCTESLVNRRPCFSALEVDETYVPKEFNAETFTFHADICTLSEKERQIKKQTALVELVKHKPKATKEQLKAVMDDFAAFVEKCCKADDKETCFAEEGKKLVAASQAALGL
T1 sequence (P02768 25-609): as above

O=C(O)[C@H]1CCCN1Cc1cc(Cl)c2cccnc2c1O [HQCl-D-Pro, (R)-5-chloro-7-((proline-1-yl)methyl)8-hydroxyquinoline]
IC50 [1]: 5.33 ± 0.44 µM | pKa ([2]; 1H NMR, read-out: pKa (NhPro/ProH+)): > 11 | pKa ([2]; 1H NMR, read-out: pKa (NqH+)): 2.32 ± 0.03 | pKa ([2]; 1H NMR, read-out: pKa (OH)): 7.75 ± 0.02 | pKa ([2]; UV-vis, read-out: pKa (NhPro/ProH+)): > 11 | pKa ([2]; UV-vis, read-out: pKa (NqH+)): 2.13 ± 0.03 | pKa ([2]; UV-vis, read-out: pKa (OH)): 7.77 ± 0.04 | pKa ([2]; pH-potentiometry, read-out: pKa (NhPro/ProH+)): > 11 | pKa ([2]; pH-potentiometry, read-out: pKa (NqH+)): < 2 | pKa ([2]; pH-potentiometry, read-out: pKa (OH)): 7.71 ± 0.06 | fraction of the negatively charged species (O−, COO−, NhPro/ProH+) ([2]; at pH 7.4): 30% | logD [3]: -0.02 ± 0.01

O=C(O)[C@@H]1CCCN1Cc1cc(Cl)c2cccnc2c1O [HQCl-L-Pro, (S)-5-chloro-7-((proline-1-yl)methyl)8-hydroxyquinoline]
IC50 [1]: 4.57 ± 0.21 µM | IC50 [4]: 8.5 µM | IC50 [5]: 23.4 µM | pKa (NH+Pro) [6]: > 11.5 | pKa (NqH+) [6]: 2.36 | pKa (OH) [6]: 7.76

c1ccc2c(c1)Nc1c(ccc3ccccc13)S2 [M627, 12H-Benzo[α]phenothiazine, reference compound]
cell death, gated events (Colo-205 cells; 10 μM): 15.2% | early apoptosis, gated events (Colo-205 cells; 10 μM): 5.27% | late apoptosis and necrosis, gated events (Colo-205 cells; 10 μM): 16.8% | cell death (Q1), gated events (Colo-205 cells; 20 μM): 20.9% | early apoptosis (Q3), gated events (Colo-205 cells; 20 μM): 21.7% | late apoptosis and necrosis (Q2), gated events (Colo-205 cells; 20 μM): 36.2%

Cc1c(C)c(C)[c-](C)c1C.O=C(O)[C@@H]1CCC[NH+]1Cc1cc(Cl)c2cccnc2c1[O-].[Cl-].[Cl-].[Rh+3] [RhCp*–HQCl-L-Pro, [RhCp*(HQCl-L-Pro)Cl]Cl]
Trp-214 Quenching logKQ′, Site I [7]: 5.5 | DG Displacement logKDG′, Site II [8]: 5.6 | logK′ (AHA) (Ac-Ala–His–Ala-NH2 (AHA)): 4.2 | FHA logKFHA′ (Ac-Phe–His–Ala-NH2 (FHA)): 4.7 | reaction time with the tripeptides (Ac-Phe–His–Ala-NH2 (FHA)): few seconds | stability constant logK of the RhCp* complex [9]: 13.41

Cc1ccc(C(C)C)cc1.O=C(O)[C@@H]1CCC[NH+]1Cc1cc(Cl)c2cccnc2c1[O-].[Cl-].[Cl-].[Ru+2] [RuCym–HQCl-L-Pro, [RuCym(HQCl-L-Pro)Cl]Cl]
Trp-214 Quenching logKQ′, Site I [7]: 5.7 | DG Displacement logKDG′, Site II [8]: 6.1 | logK′ (AHA) (Ac-Ala–His–Ala-NH2 (AHA)): 4.4 | FHA logKFHA′ (Ac-Phe–His–Ala-NH2 (FHA)): 5.1 | reaction time with the tripeptides (Ac-Phe–His–Ala-NH2 (FHA)): 3 h

N.N.[Cl][Pt][Cl] [cisplatin, reference compound]
cell death, gated events (Colo-205 cells; 15 μM): 3.18% | early apoptosis, gated events (Colo-205 cells; 15 μM): 1.06% | late apoptosis and necrosis, gated events (Colo-205 cells; 15 μM): 4.70%

COc1cccc2c1C(=O)c1c(O)c3c(c(O)c1C2=O)C[C@@](O)(C(=O)CO)C[C@@H]3O[C@H]1C[C@H](N)[C@H](O)[C@H](C)O1 [doxorubicin, reference compound]
IC50 [1]: 0.82 ± 0.16 µM | IC50 [10]: 0.05 ± 0.01 µM | IC50 [11]: 0.19 ± 0.02 µM
